Literature values as cited in patent KR20140119363A, “보리코나졸이 함유된 안정화된 조성물” (에스케이케미칼주식회사, priority 2013, dated 2014).

How the values were obtained:
[1] = degradation product triazole acetophenone formed
[2] = in vivo
[3] = tested on: deep-seated mycosis [심재성 진균증]

## C[C@@H](c1ncncc1F)[C@](O)(Cn1cncn1)c1ccc(F)cc1F [보리코나졸]
[1]
  stability to moisture and heat: 수분 및 열에 불안정

## C[C@@H]1[C@H](O)[C@@H](C)/C=C/C=C/C=C/C=C/C=C/C=C/C=C/[C@H](O[C@@H]2O[C@H](C)[C@@H](O)[C@H](N)[C@@H]2O)C[C@@H]2O[C@](O)(C[C@@H](O)C[C@@H](O)[C@H](O)CC[C@@H](O)C[C@@H](O)CC(=O)O[C@H]1C)C[C@H](O)[C@H]2C(=O)O [암포테리신 B]
[2]
  nephrotoxicity: 심각한 문제
[3]; overall average
  response rate: ~34%

## CCC(C)n1ncn(-c2ccc(N3CCN(c4ccc(OCC5COC(Cn6cncn6)(c6ccc(Cl)cc6Cl)O5)cc4)CC3)cc2)c1=O (stereo not shown) [이트라코나졸]
[3]; in vivo
  treatment success rate: 그다지 높지 않은
